The first assay deals with T1, hD2LR (human dopamine D2 receptor, long splice variant) (Homo sapiens, UniProt P14416).
T1 construct: gene DRD2; full-length long isoform, stably expressed in Flp-In HEK293 cells (G protein BRET assay); C351I G alpha subunits co-transfected as sensors; hD2LR-NLuc fusion with GRK2-Venus in the GRK2 recruitment assay (SCH23390 row)
Description: Schild analysis, BRET GRK2 recruitment (hD2LR-NLuc / GRK2-Venus). The format is cell-based. As to conditions: read-out: pA2 (converted). (Bioluminescence resonance energy transfer reports proximity on the nanometre scale.)
Consider `CN1CCc2cc(Cl)c(O)cc2[C@@H](c2ccccc2)C1` [SCH23390], for which the Kb is 525 nM.

A further assay addresses T1, hD2LR (human dopamine D2 receptor, long splice variant). Kind of assay: BRET G protein (GαoA) activation, Gβγ-Venus / masGRK3ct-NLuc release. In kind it is cell-based.
Settings: not given
By EC50 is commonly meant the midpoint of the concentration-response curve. Molecule `CCCN(CCC)CCc1cccc2c1CC(=O)N2` [Ropinirole] had an EC50 of 2.82 nM.
Turning to `C=CCN1C[C@H](C(=O)N(CCCN(C)C)C(=O)NCC)C[C@@H]2c3cccc4[nH]cc(c34)C[C@H]21` [Cabergoline], the EC50 is 1.58 nM.
The same measure, in the same setting: under `CC(C)C[C@H]1C(=O)N2CCC[C@H]2[C@]2(O)O[C@](NC(=O)[C@@H]3C=C4c5cccc6[nH]c(Br)c(c56)C[C@H]4N(C)C3)(C(C)C)C(=O)N12` [Bromocriptine] stands 14.5 nM.
The same measure, in the same setting: under `CCN(CC)C(=O)N[C@H]1C[C@@H]2c3cccc4[nH]cc(c34)C[C@H]2N(C)C1` [Terguride] stands 4.37 nM.
Still for that read-out and setting: under `Oc1c(CN2CCN(c3ccccn3)CC2)cc(Cl)c2cccnc12` [MLS1547] stands 209 nM; under `Clc1cccc(C2CCN(CCCOc3ccc4scnc4c3)CC2)c1Cl` [UNC9994], 282 nM.

The values are drawn from article PMC8050214 (Scientific Reports, 2021).
